Test results as given in patent US20240294570A1, “ENZYMATICALLY FORMING INTRANUCLEAR PEPTIDE ASSEMBLIES FOR SELECTIVELY KILLING INDUCED PLURIPOTENT STEM CELLS” (BRANDEIS UNIVERSITY, priority 2021, published 2024).
Non-standard residues stand in square brackets, D forms with d. Residues, ends and D or L forms follow the SMILES beside them. No end group written: not given here. *: point of attachment. pY = N[C@@H](Cc1ccc(OP(=O)(O)O)cc1)C(=O)O; NBD = O=[N+]([O-])c1ccc(*)c2nonc12; βAla = NCCC(=O)O

Legend:
[1] = Enzymatic self-assembly in vitro, nanostructures by TEM; assay type: physicochemical; conditions: for diameters of nanofibers: after dephosphorylation at 400 μM by ALP (0.5 U/mL)
Description: TEM Sample Preparation: After placing 5 μL samples on 400 mesh copper grids coated with continuous thick carbon film (˜35 nm) which is glowed discharged, we washed the grid with ddH2O and UA (uranyl acetate). The sample loaded grid was stained with the UA. The residual UA was removed by filter paper and then dried in air. TEM images were obtained with Morgagni 268 transmission electron microscope.
After obtaining all the precursors, their behaviors for EISA were evaluated in vitro using transmission electron microscopes (TEM) to examine the nanostructures formed before and after the ALP catalyzed dephosphorylation of precursors 5, 7, and 9. […] The critical micelle concentration (CMC) of 5 is 86.1 μM. […] The CMC of 6 is 8.1 μM. Unlike the case of 5, dephosphorylation of 7 or 9 at 400 μM by ALP (0.5 U/mL) produces nanofibers with the diameters of 6±2 nm or 9±2 nm, whose CMC is 87.4 μM or 25.8 μM, respectively.
A key requirement for selectively eliminating iPSCs by EISA is that the L-peptide nanoribbons only form on and in iPSCs, which overexpress ALP, but not on and in the differentiated cells that express normal level of ALP. That is, L-peptide nanoribbons should only rapidly form at high level of ALP, but not at normal level of ALP. […] Thus, after assessing the level of ALP expression in iPSCs, it should be possible to optimizing the initial concentration of a peptide and the time of dephosphorylation, to promote EISA that selectively targets iPSCs.

[2] = Critical micelle concentration (CMC) measurement with pyrene probe; assay type: physicochemical; conditions: for CMC of the nanofiber-forming product of dephosphorylation: product after dephosphorylation at 400 μM by ALP (0.5 U/mL)
Description: Critical Micelle Concentration ((MC) Measurement: The CMCs were determined using pyrene as the fluorescent probe. Different concentrations of compounds were prepared in pyrene-saturate solutions. The fluorescence spectra of pyrene solutions with different concentration compounds were obtained. The intensity ratio of 378 nm/393 nm (I378/I393) was determined by a Synergy H1 hybrid multi-mode microplate reader. Plot I378/I393 against the concentrations of compounds. The concentration at the turning point is the CMC.

[3] = Degradation in HS-5 cell lysate (LC-MS)
ALP = assay: Dephosphorylation rate measurement (LC-MS); conditions: for conversion ratio to dephosphorylated peptide / half-life at 100 μM / half-life at 200 μM: 0.5 U/mL ALP; for conversion ratio to dephosphorylated peptide: after 5 h of incubation; for half-life at 400 μM / half-life at 100 μM / half-life at 200 μM: alkaline phosphatase (ALP) in PBS; for half-life at 100 μM / half-life at 200 μM: half-life of dephosphorylation
Description: The reaction mixtures were analyzed with LC-MS.
Thus, the conversion of the phosphopentapeptides to their corresponding peptides was examined over time.

iPSCs [4] = assay: Cell viability of iPSCs (trypan blue); assay type: cell-based, human; conditions: 400 μM, 2 h
Description: Cell Culture: Human induced pluripotent stem cell line A21 was generated from human normal dermal fibroblasts by using the StemRNA™-NM Reprogramming kit (Stemgent, Cat #00-0076). hiPSCs were routinely cultured and passaged on 6-well plates coated with 0.25 μg/cm^2 iMatrix-511 (Recombinant Laminin-511) (ReproCell) with NutriStem XF/FFTM medium (Biological Industries). HS-5 cell line and HEK293 cell line were purchased from American Type Culture Collection (ATCC, USA). HS-5 cells were cultured in Dulbecco's Modified Eagle Medium (DMEM) supplemented with 10% fetal bovine serum (FBS), 100 U/mL penicillin and 100 μg/mL streptomycin. HEK293 cells were cultured in Minimal Essential Medium (MEM) supplemented with 10% fetal bovine serum (FBS), 100 U/mL penicillin and 100 μg/mL streptomycin. All cells were maintained at 37° C. in a humidified atmosphere of 5% CO2.
Cell Viability of iPSC's: iPSCs were plated in 6-well plates and incubated for 24 to 48 hours, then media were replaced with fresh one (2 ml) supplemented with PBS (control) 5 (200 μM, 300 μM, and 400 μM), 7 (400 μM) or 9 (400 μM), and incubated for 2 hours. Media were removed and cells were rinsed with PBS once, fresh normal cultural media were added and incubated for 30 min. All cells were collected and stained with trypan blue, live cells were counted using Cellometer Auto 2000 (Nexcelom Bioscience). Data were obtained by from three independent wells (n=3).

iPSCs [5] = assay: CLSM imaging of peptide assemblies in iPSCs; assay type: cell-based, human; conditions: 400 μM, 2 hours
Description: Confocal Laser Scanning Microscopy (CLSM) Imaging: For live cell imaging, cells in exponential growth phase were seeded in a confocal dish (3.5 cm) at 1.0×10^5 cells per dish and then incubated in incubator for 24 h. We removed culture medium, and added fresh medium containing precursors for different time points. After removing the medium and washing the cells with live cell imaging solution (2 mL×2), the cells were used for CLSM imaging. For time-dependent live cell imaging, cells in exponential growth phase were seeded in a confocal dish (3.5 cm) at 1.0×10^5 cells per dish and then incubated in incubator for 24 h. After removing culture medium, we treated the cells with 1 mL of Hoechst 33342 (1 μg mL^−1) for 10 minutes. After being washed with culture medium (2 mL×2), the cells were incubated with fresh medium containing precursor 5 in a Tokai Hit stage top incubator (STXF-WSKMX-SET) to be used for CLSM imaging. All the CLSM images were obtained using Zeiss LSM 880 confocal microscopy at the lens of 63× with oil. The lasers used are 405 nm and 488 nm.
Because the fluorescence of NBD increases drastically from unassembled to assembled state, confocal laser scanning microscopy (CLSM) was suitable to reveal the cellular location of the peptide assemblies formed after dephosphorylation catalyzed by ALP. […] The blackness in nuclei overlaps well with the strong fluorescence. […] The results confirms that the nucleus-targeting mainly originates from the ALP catalyzed dephosphorylation.
To trace the dynamics of the formation and distribution of 5 inside iPSC cells, time-lapse CLSM was also used to image the changes of the fluorescence in the iPSCs incubated by 5 (400 μM). Using one cell as a representative case, after 6 minutes incubation fluorescent puncta appear on the membrane, likely originating from the aggregates of assemblies of 5 and those of 6 generated by the dephosphorylation catalyzed by ALP. […] After 24 minutes incubation, fluorescence starts to grow in the cytoplasm. Considering the LLLLY motif in SEQ ID NO: 2 constitutes the transmembrane domains of 18 human membrane proteins, it is possible that the affinity of 5 or 6 to membrane allows the assemblies of the mixture of 5 and 6 to interact with cellular membranes, which then facilitates nuclear localization. At about 28 minutes of incubation, fluorescence appears in the nucleus. Moreover, the nuclei shrink after the assemblies emerge in the nuclei. In addition, the nuclei also show nuclear blebbing (Stephens et al., “Chromatin Histone Modifications and Rigidity Affect Nuclear Morphology Independent of Lamins,” Mol. Biol. Cell 29(2):220-233 (2018), which is hereby incorporated by reference in its entirety). The shrinkage of nuclei and nuclear blebbing likely associate with iPSC death. To further examine the dynamics of EISA-formed peptide assemblies in iPSCs over different time, the increase of fluorescence in two cells over 2 hours was monitored; their nuclei, A and B, are shown in FIG. 10A. […] The mean fluorescent intensity in Nucleus A starts to increase at 28 minutes and levels off after 110 minutes. For Nucleus B, the mean fluorescent intensity keeps increasing from 38 minutes. The increases of the fluorescence in the nuclei and nucleoli are synchronous. […] The assemblies inside the nuclei or near nuclear membrane induce nuclear blebbing and shrinkage of nuclei, which likely contributes to the cell death.

| 6 remaining in HS-5 lysate ([3]; from 200 μM of 5, after 2 h of incubation) | 6 remaining in HS-5 lysate ([3]; from 200 μM of 5, after 4 hours incubation) [%] | Compound | self-assembling ability ([1]; formed from 3 upon dephosphorylation by ALP) | critical micelle concentration (CMC) [2] | diameters of nanofibers [1] [nm] | conversion ratio to dephosphorylated peptide (ALP) [%] | half-life at 400 μM (ALP) [h] | half-life at 100 μM (ALP) [h] | half-life at 200 μM (ALP) [h] | cytotoxicity against the iPSCs (iPSCs [4]) | CMC of the nanofiber-forming product of dephosphorylation [2] [µM] | NBD fluorescence in iPSCs (location of peptide assemblies) (iPSCs [5]) |
| --- | --- | --- | --- | --- | --- | --- | --- | --- | --- | --- | --- | --- |
| – | – | 4: de-phosphorylated form of 3: NBD-bAla-Leu-Leu-Leu-Tyr (SEQ ID NO: 1) ({NBD}-[βAla]LLLY) [compound 4] | limited self-assembling ability | – | – | – | – | – | – | – | – | – |
| about 20% | 6.01 | CC(C)C[C@H](NC(=O)CCNc1ccc([N+](=O)[O-])c2nonc12)C(=O)N[C@@H](CC(C)C)C(=O)N[C@@H](CC(C)C)C(=O)N[C@@H](CC(C)C)C(=O)N[C@@H](Cc1ccc(O)cc1)C(=O)O [compound 6, NBD-βA-LLLLY] ({NBD-βAla}-LLLLY-OH) | – | 8.1 µM | – | – | – | – | – | – | – | – |
| – | – | CC(C)C[C@H](NC(=O)[C@H](CC(C)C)NC(=O)[C@H](Cc1ccc(OP(=O)(O)O)cc1)NC(=O)[C@H](CC(C)C)NC(=O)[C@H](CC(C)C)NC(=O)CCNc1ccc([N+](=O)[O-])c2nonc12)C(=O)O [compound 7, NBD-βA-LLpYLL] ({NBD-βAla}-LL[pY]LL-OH) | – | 159.9 UM | 6±2 | 61.5 | 2.09 | 2.12 | 1.87 | hardly exhibit cytotoxicity | 87.4 | no fluorescence inside the cells |
| – | – | CC(C)C[C@@H](NC(=O)CCNc1ccc([N+](=O)[O-])c2nonc12)C(=O)N[C@H](CC(C)C)C(=O)N[C@H](CC(C)C)C(=O)N[C@H](CC(C)C)C(=O)N[C@@H](Cc1ccc(OP(=O)(O)O)cc1)C(=O)O [compound 9, NBD-βA-llllpY] ({NBD-βAla}-[dL][dL][dL][dL][pY]-OH) | – | 146.8 µM | 9±2 | 93.3 | 0.45 | 0.41 | 0.36 | hardly exhibit cytotoxicity | 25.8 | most of the cells exhibit no fluorescence inside the cells |
